Data as given in patent US5922756A, “Method of inhibiting nitric oxide synthase” (priority 1998, dated 1999).
Where two headings read alike, the source gives them in different places.

How the values were obtained:
Murine iNOS = biological target: T1, Murine iNOS (Mus musculus, UniProt P29477); assay: Citrulline assay for iNOS enzyme activity ([3H]arginine to [3H]citrulline); assay type: biochemical; conditions: for remaining activity at 800 µM: read-out: citrulline formation (% of control)
T1 construct: purchased Cayman
Description: Murine iNOS was extracted from the RAW 264.7 murine macrophages (from the American Type Culture Collection). The cells were stimulated with 20 units/mL cf IFNγ and 0.5 μg/mL LPS, incubated for 4 hr, and then harvested. The washed cells were lysed in 50 mM MOPS buffer (pH 7.0) which contained 1 mM EGTA, 100 mM NaCl, 0.1% 3-[(3-cholamidopropl)dimethylammonio]-2-hydroxy-1-propanesulfonate (CHAPSO), 0.2 mM phenylmethylsulfonyl fluoride, […], and 1 mM leupeptin. After passing through Sephadex G-100 (Pharmacia) to remove arginine, NADPH, and unbound tetrahydrobiopterin, the supernatant was concentrated by ultrafiltration using Centricon 30 microconcentrators (Amicon) (Forstermann et al. 1994; Wolff and Gribin 1994). Murine iNOS, 100,000 g fraction, was also purchased from Cayman.
(§1) Enzyme inhibition studies for iNOS were conducted in 50 mM HEPES buffer (pH 7.4) containing 1 mM calcium chloride, 1 mM magnesium acetate and […]. [^3 H]arginine (New England Nuclear), tetrahydrobiopterin (Biomol), and EGCG were added at the indicated concentrations. Reactions were terminated by the addition of AG 50WX8 resin (Bio-Rad) in HEPES-EDTA buffer (pH 5.5). Enzyme activity was measured by monitoring the conversion of [^3 H]arginine to [^3 H]citrulline (Hevel and Marletta 1994). Reactions were allowed to occur at 37° C. for 10-20 min since time-course analyses had shown that the reaction was linear under these conditions. Background was determined by the level of radioactivity in a reaction mixture from which iNOS was omitted. This amount was subtracted from the level detected in the experimental samples. Enzyme activity, i.e. the amount of citrulline formed, was deduced from the specific activity of the [^3 H]arginine.
Purification of tea catechin polyphenols was performed according to Xie et al. (1993). Enzyme preparation and assay were followed as described in the Methods section of Example 2.

iNOS mRNA expression = assay: iNOS gene expression by relative RT-PCR in LPS- and IFNγ-activated mouse peritoneal cells; assay type: cell-based; conditions: 4 hr after LPS + IFNγ stimulation, read-out: iNOS mRNA expression reduced to (% of control, iNOS/GAPDH ratio)
Description: (§2) Non-elicited peritoneal exudate cells were obtained from BALB/c mice (Jackson Laboratories) and were cultured at 10^6 /mL as described by Chan et al. (1995). They were stimulated by the addition of 0.01 μg/mL LPS from Salmonella typhosa (Difco Laboratories) and 10 units/mL of IFNγ. At 4 hr after stimulation, total RNA was isolated with a Purescript RNA isolation kit (Gentra). RT-PCR was performed to determine the level of iNOS gene expression. From each sample, 300 ng of RNA was reverse-transcribed using 100 units MMLV reverse transcriptase, 20 units RNase inhibitor, 0.6 mM dNTP, and 0.4 mM Oligo(dT16) (Promega). Then PCR analyses were performed on the aliquots of the cDNA preparations for detecting iNOS and glyceraldehyse 3-phosphate dehydrogenase (GAPDH) gene expression. The reactions occurred in a 50 μL volume, for 23 cycles, with 10 mM Tris-HCl, pH 8.3, 50 mM KCl, 1.5 mM MgCl2, 0.3 mM dNTP, 2.0 units of Taq DNA polymerase, and 50 pmol of 5' and 3' primers. Murine iNOS and GAPDH 5' and 3' primers were purchased from Clontech and used according to manufactures protocols. The products were then separated on 1.6% agarose gel, stained with ethidium bromide, and the intensity of the bands was determined by scanning (Siebert and Kellogg 1995).

GAPDH mRNA expression = assay: GAPDH (housekeeping gene) mRNA expression by RT-PCR in activated mouse peritoneal cells; assay type: cell-based; conditions: EGCG 1-10 μM, housekeeping gene control
Description: as §2

[1] = biological target: T2, neuronal nitric oxide synthase (nNOS) (Mus musculus, UniProt Q9Z0J4); assay: Citrulline assay for neuronal NOS enzyme activity (mouse brain 100,000 g fraction); assay type: biochemical; conditions: 0.135 μM arginine, 125 μM tetrahydrobiopterin, read-out: nNOS citrulline formation inhibited by (% compared with control)
T2 construct: fresh brains from BALB/c mice were homogenized; from tissue; host or cells: brain of BALB/c mice, 100,000 g fraction passed through Sephadex G-100
Description: as §1
Purification of EGCG was performed according to Xie et al. (1993). Neuronal NOS sample preparation and enzyme activity assay were described in the Methods section of Example 2, with the following modifications. For nNOS, fresh brains from BALB/c mice were homogenized in a 5-fold volume of 50 mM Tris-HCl (pH 7.5) that contained 1 mM EDTA, 5 mM 2-mercaptoethanol and then were centrifuged at 100,000 g for 1 hr, and then the sample was passed through the Sephadex G-100 column. For the nNOS enzyme assay, 5 μM flavin mononucleotide, 5 μM flavin adenine dinucleotide, 10 μg/mL calmodulin (Calbiochem) and 1.25 mM DTT were incorporated in the reaction mixture.

NO production = conditions: LPS- and IFNγ-induced mouse peritoneal cells; Chan et al. 1995; cited from earlier work
[2] = 800 μM compound, 0.270 μM arginine, 125 μM tetrahydrobiopterin, 126 pmol/min iNOS
[3] = read-out: citrulline formation inhibited to (% of control)

Row | remaining activity at 800 µM (Murine iNOS; [2]) | SMILES | mrna remaining at 1 µM (iNOS mRNA expression; 1 μM EGCG) | mrna remaining at 3 µM (iNOS mRNA expression; 3 μM EGCG) | mrna remaining at 5 µM (iNOS mRNA expression; 5 μM EGCG) | mrna remaining at 10 µM (iNOS mRNA expression; 10 μM EGCG) | reduction in mRNA expression of GAPDH (GAPDH mRNA expression) | EC50 (Murine iNOS) | Ki (Murine iNOS) | pattern of inhibition with respect to substrate arginine (Dixon plot) (Murine iNOS; 100-600 μM EGCG, 0.068-0.270 μM arginine) | pattern of inhibition with respect to cofactor tetrahydrobiopterin (Dixon plot) (Murine iNOS; 100-600 μM EGCG, 12-125 μM tetrahydrobiopterin) | remaining activity at 800 µM (Murine iNOS) | inhibition at 50 µM (Murine iNOS; [3]) | inhibition at 250 µM (Murine iNOS; [3]) | inhibition at 500 µM (Murine iNOS; [3]) | inhibition at 750 µM (Murine iNOS; [3]) | inhibition at 200 µM ([1]; 200 μM EGCG) | inhibition at 400 µM ([1]; 400 μM EGCG) | inhibition at 600 µM ([1]; 600 μM EGCG) | NO production measured by nitrite accumulation in the culture medium (NO production)
1 | 68% | O=C(O[C@@H]1Cc2c(O)cc(O)cc2O[C@@H]1c1ccc(O)c(O)c1)c1cc(O)c(O)c(O)c1 [ECG, epicatechin-gallate] | – | – | – | – | – | – | – | – | – | – | – | – | – | – | – | – | – | –
2 | 96% | Oc1cc(O)c2c(c1)O[C@H](c1cc(O)c(O)c(O)c1)[C@H](O)C2 [EGC, epigallocatechin] | – | – | – | – | – | – | – | – | – | – | – | – | – | – | – | – | – | –
3 | – | O=C(O[C@@H]1Cc2c(O)cc(O)cc2O[C@@H]1c1cc(O)c(O)c(O)c1)c1cc(O)c(O)c(O)c1 [EGCG, Epigallocatechin-3-gallate] | 82% | 74% | 41% | 14% | not observed | 150 µM | 130 µM | competitive pattern of inhibition | competitive manner | 62% | 85% | 40% | 27% | 14% | 79% | 51% | 56% | reduces NO production
